This note sets out measurements from patent US10383844B2, “Methods for treating pulmonary fibrosis using chromenone derivatives” (College of Medicine Pochon Cha University Industry—Academic …, priority 2017, dated 2019).

In data set [1] the test system is L132 cells. The experiment in a line: Degree of EMT induced by TGF-beta in L132 cells (western blots). The data set is classed as cell-based. To be noted: L132, 0.1 μM, 1 hour later TGF-beta 5 ng/mL for 48 hours, FIG. 3(A). The procedure:
(§1) For the experiment, L132 cells were cultured at 37° C. in a 5% CO2 incubator by using an RPMI 1640 (RPMI, GIBCO-Invitrogen, Paisley, Scotland, UK) medium containing 10% FBS and 1× Antibiotic-Antimycotic (GIBCO-Invitrogen, Paisley, Scotland, UK).
(§2) To carry out the western blots, the treated cells were respectively washed twice with 1×PBS (0.14 M NaCl, 2.68 mM KCl, 10 mM Na2HPO4, 1.83 mM KH2PO4), after which the resulting cells were dissolved in a protein lysis buffer (100 mM Tris-HCl (pH 7.5), 50 mM NaCl, 5 mM EDTA (pH 8.0), 0.5% NP-40, 0.5% Sodium deoxycholate, 50 mM β-glycerophosphate, 0.1 mM Na3VO4, 50 mM NaF). A cell suspension was centrifuged at 13000 rpm for 30 minutes, after which only a supernatant thereof was taken out, such that 1% BSA solution was injected by 8, 6, 4, 2 and 0 μL into Protein Dye 1 mL as a standard by using a Bradford assay and 2 μL of the supernatant was added thereinto. The resulting solution was divided by 200 μL into each of a 96-well plate, after which the resulting plate was put into an ELISA reader to measure an optical observance thereof at an wavelength of 595 nm, such that a 6× sample buffer (0.35 M Tris (pH 6.8), 3% glycerol, 1% Sodium Dodecyl Sulfate, 6 mM Dithiothreitol) was injected to make a sample containing the same amount of protein. Then, the resulting sample was soaked in 100° C. water and boiled for 5 minutes and the same amount of protein was analyzed by using SDS-PAGE. A primary antibody used for the western blots was anti-HSP27 and β-actin (Santacruz, sc-13132 and sc-47778), and also anti-E-cadherin (BD, #610181), anti-Vimentin (BD, #550513), anti-Fibronectin (BD, #610077), anti-snail (Cell signaling, #3895S), anti-alpha-smooth muscle actin (Sigma, A5228), and anti-Zo-1 (Life technologies, #402200) were used. A secondary antibody used was Goat anti rabbit and Goat anti mouse (Santacruz, sc-2004 and sc-2005).
To identify a degree of EMT according to a production of altered HSP27 dimers in cells, L132, a normal lung cell, was treated with Compound 1 of the present invention at a 0.1 μM concentration, and in 1 hour later the cell was treated with TGF-beta at a 5 ng/mL concentration for 48 hours. Then, a cell culture and western blots were performed in the same method as the above Experimental Example 1.
Background: A western blot detects proteins with antibodies after separation by electrophoresis.

In data set [2] the test system is L132 cells. The data set can be described thus: Degree of radiation-induced EMT in L132 cells (western blots). The data set is classed as cell-based. As to conditions: L132, 0.1 μM, 1 hour later radiation 5 Gy, 48 hours, FIG. 3(B). Here is the method:
as §1
as §2, with “sc-2005). […]” for “sc-2005).”

In data set [3] the test system is radiation-induced pulmonary fibrosis. The data set can be described thus: Small animal model of radiation-induced pulmonary fibrosis (local lung irradiation). Type of data set: in vivo. As to conditions: C57BL/6 male mouse, left lung 75 Gy, 13.6 mg/kg intraperitoneally three times a week, FIG. 4(B). The procedure:
To identify an anti-pulmonary fibrosis effect according to a production of HSP27 dimers in a small animal model on lung side effects with clinically analogous irradiation, the small animal model was exposed to a radiation dose in a range of high dose clinical radiotherapy to induce a pulmonary fibrosis process.
As shown in FIG. 4(A), a 10 week-old C57BL/6 male mouse was anesthetized with an anesthetic mixture of 30 mg/kg Zoletil and 10 mg/kg Rompun, after which a left lung of the mouse was exposed to a high dose radiation of 75 Gy in a 3 mm range by using X-Rad 320 (Precision, North Branford, Conn., USA). Then, Compound 1 of the present invention was intraperitoneally administered to the mouse at a 13.6 mg/kg concentration three times a week. During its sacrifice, the mouse was anesthetized, after which 10% formalin was injected into the anesthetized mouse through an airway thereof to fix its lung, such that a tissue sample was prepared by using a paraffin embedding.
An amount of collagen was histologically identified through Masson's trichrome dyeing to compare degrees of pulmonary fibrosis with each other.

For orientation: melting point means the temperature, or range, at which the solid turns liquid. For `Cc1cc(=O)c2c(OCC3CS3)cc(OCC3CS3)cc2o1` (stereo not drawn), the melting point lay within 95 to 96 °C.

Take `Cc1cc(=O)c2c(O)cc(OCC3CS3)cc2o1` (stereo not drawn) [Compound 1, 5-hydroxy-2-methyl-7-(thiirane-2-ylmethoxy)-4H-chromene-4-one]: in data set [1], the “altered HSP dimers” value is “increasing altered HSP dimers in a dose-dependent manner”, the “expression of E-cadherin (marker of epithelial cells)” value was “mitigating a decrease”, the “expression of Fibronectin (marker of mesenchymal cells)” value is “inhibiting an increase” and the “expression of Snail (marker of mesenchymal cells)” value is given as “inhibiting an increase”. Besides, in data set [2], the “expression of E-cadherin” value is on record as “mitigated a decrease”, the “expression of Twist (marker of mesenchymal cells)” value is “inhibited an increase” and the “expression of Zo-1” value is listed as “mitigated a decrease”. The “immune response lesion in locally irradiated lung region (naked eye)” value in data set [3] is listed as “the lesion was recovered”.
